Assays:
HFF [1] = assay: In vitro inhibition of human cytomegalovirus in HFF cells by plaque reduction assay.; assay type: functional, cell-based
HFF [2] = assay: Cytotoxicity of compound in uninfected cells determined by examining the effect on growth of HFF cells; assay type: functional, Homo sapiens
[3] = Cytotoxicity of compound in uninfected cells determined by examining the effect on growth of KBcells; assay type: functional, Homo sapiens
[4] = Selectivity index is the ratio of CC50 to IC50; assay type: functional
HFF [5] = assay: Visual cytotoxicity of compound in uninfected cells determined by examining the effect on growth of HFF cells; assay type: functional, Homo sapiens

Row | Compound | IC50 (HFF [1]) | Cytotoxicity (HFF [2]) | Cytotoxicity [3] | SI [4] | Cytotoxicity (HFF [5])
1 | NC(=O)c1cn(COCCO)c2ncnc(N)c12 | > 100 µM | >100 µM |  |  | 
2 | CCCn1cc(C(=N)S)c2c(N)ncnc21 | 1.2 µM |  | 17 µM | 14 | 
3 | C=CCn1cc(C(N)=O)c2c(N)ncnc21 | > 100 µM |  | 90 µM |  | 
4 | CCCn1cc(C#N)c2c(N)ncnc21 | 36 µM |  | >100 µM |  | 
5 | NC(=O)c1cn(COC(CO)CO)c2ncnc(N)c12 | > 100 µM | >100 µM |  |  | 
6 | Cn1cc(C#N)c2c(N)ncnc21 | > 100 µM |  | >100 µM |  | 
7 | N#Cc1cn(COC(CO)CO)c2ncnc(N)c12 | > 100 µM |  |  |  | >100 µM
8 | NC(=S)c1cn(COCCO)c2ncnc(N)c12 | 8.8 µM |  | 115 µM | 13 | 
9 | N#Cc1cn(COCCO)c2ncnc(N)c12 | > 100 µM |  |  |  | >100 µM
10 | Cn1cc(C(N)=O)c2c(N)ncnc21 | > 100 µM |  | >100 µM |  | 
11 | NC(=S)c1cn(COC(CO)CO)c2ncnc(N)c12 | 6.2 µM | >100 µM |  |  | 
12 | CCCn1cc(C(N)=O)c2c(N)ncnc21 | > 100 µM |  | 90 µM |  | 
13 | C=CCn1cc(C#N)c2c(N)ncnc21 | > 100 µM |  | >100 µM |  | 
14 | Nc1nc2c(ncn2COC(CO)CO)c(=O)[nH]1 [GANCICLOVIR] | 8.4 µM |  | >100 µM |  | 
15 | Cn1cc(C(=N)S)c2c(N)ncnc21 | 1.2 µM |  | 14.7 µM | 12 | 
16 | C=CCn1cc(C(N)=S)c2c(N)ncnc21 | 2.1 µM |  | 19 µM | 9 | 
